Measurements from US5430047A, “Neurotensin antagonists” (Warner-Lambert Company, priority 1994, dated 1995).

The compounds below were run against T1, neurotensin receptor (Mus musculus, UniProt O88319) (assay: Inhibition of [3H] neurotensin binding in a receptor assay). Conditions: [3H] neurotensin receptor binding.
T1 construct: from tissue
Experimental: (§1) Thus, the compounds of Formula I were tested for their ability to inhibit [^3 H] neurotensin binding in a receptor assay described by Mazella J., et al., Journal of Biological Chemistry, 263:144-149 (1988) and Kitabgi P., et al., European Journal of Pharmacology, 140:285-293 (1987). Compounds were tested as neurotensin antagonists using the functional assay described by Bunzou J. C., et al., Biochem. J., 264:871-878 (1989) and Turner J., et al., J. Pharm. Exp. Ther., 253:1049-1056 (1990). Thus, compounds were tested for their ability to inhibit neurotensin-induced calcium mobilization in HT29 cells.
(§2) The above test methods are incorporated herein by reference. The data in the table show the neurotensin receptor binding activity and calcium mobilization activity, of representative compounds of Formula I.

T1 sequence (O88319 whole entry): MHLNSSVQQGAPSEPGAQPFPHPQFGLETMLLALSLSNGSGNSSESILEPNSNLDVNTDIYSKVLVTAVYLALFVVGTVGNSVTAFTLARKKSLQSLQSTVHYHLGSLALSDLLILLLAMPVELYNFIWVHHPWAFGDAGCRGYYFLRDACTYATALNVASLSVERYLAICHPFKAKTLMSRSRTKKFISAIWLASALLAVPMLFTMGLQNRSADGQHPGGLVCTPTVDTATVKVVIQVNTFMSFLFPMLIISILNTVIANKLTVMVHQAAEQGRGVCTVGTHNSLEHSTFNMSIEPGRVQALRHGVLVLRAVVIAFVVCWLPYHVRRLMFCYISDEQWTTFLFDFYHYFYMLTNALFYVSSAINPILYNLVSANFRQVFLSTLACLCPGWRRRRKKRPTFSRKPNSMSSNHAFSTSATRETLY

Row | SMILES | Ki
1 | O=C(O)c1cccc(C(CCc2ccc(Cl)cc2)CC(=O)c2ccccc2)c1 (stereo not drawn) [Example 19, 3-[1-[2-(4-Chlorophenyl)ethyl]-3-oxo-3-phenylpropyl]-benzoic acid] | 17.7 µM
2 | O=C(O)c1cccc(C(CCc2ccccc2)CC(=O)c2ccc(Cl)cc2)c1 (stereo not drawn) [Example 23, 3-[3-(4-Chlorophenyl)-3-oxo-1-[2-phenylethyl]propyl]-benzoic acid] | 10.4 µM
3 | O=C(CC(CC(=O)c1ccc(Cl)cc1)c1cccc(-c2nnn[nH]2)c1)c1ccc(Cl)cc1 [Example 18, 1,5-Bis-(4-chlorophenyl)-3-[3-(1H-tetrazol-5-yl)phenyl]-pentane-1,5-dione] | 5.9 µM
4 | O=C(O)c1cccc(C(CCc2ccc(Cl)cc2)CC(=O)c2ccc(Cl)cc2)c1 (stereo not drawn) [Example 20, 3-[3-(4-Chlorophenyl)-1-[2-(4-chlorophenyl)ethyl]-3-oxopropyl]-benzoic acid] | 6.74 µM
5 | O=C(O)c1cccc(C(CCc2ccc(F)cc2)CC(=O)c2ccc(F)cc2)c1 (stereo not drawn) [Example 22, 3-[3-(4-Fluorophenyl)-1-[2-(4-fluorophenyl)ethyl]-3-oxopropyl]-benzoic acid] | 3.24 µM

More lines, now with the values ahead:

Row | Ki | SMILES
6 | 29.5 µM | O=C(O)c1cccc(C(CCc2ccc(F)cc2)CC(=O)c2ccccc2)c1 (stereo not drawn) [Example 21, 3-[1-[2-(4-Fluorophenyl)ethyl]-3-oxo-3-phenylpropyl]-benzoic acid]
7 | 0.448 µM | Cc1ccc(C(=O)CC(CC(=O)c2ccc(F)cc2)c2cccc(C(=O)O)c2)cc1 (stereo not drawn) [Example 15, 3-[1-[2-(4-Fluorophenyl)-2-oxoethyl]-3-oxo-3-p-tolylpropyl]-benzoic acid]
8 | 6.32 µM | O=C(CC(CC(=O)c1ccc(F)cc1)c1cccc(-c2nnn[nH]2)c1)c1ccc(F)cc1 [Example 17, 1,5-Bis-(4-fluorophenyl)-3-[3-(1H-tetrazol-5-yl)-phenyl]-pentane-1,5-dione]

These compounds were tested against T2, neurotensin receptor (Homo sapiens, UniProt P30989) (assay: Inhibition of neurotensin-induced calcium mobilization in HT29 cells). Conditions: not given.
T2 construct: endogenous in cells; host or cells: HT29 cells
Assay type: cell-based
Experimental: as §1, §2

T2 sequence (P30989 whole entry): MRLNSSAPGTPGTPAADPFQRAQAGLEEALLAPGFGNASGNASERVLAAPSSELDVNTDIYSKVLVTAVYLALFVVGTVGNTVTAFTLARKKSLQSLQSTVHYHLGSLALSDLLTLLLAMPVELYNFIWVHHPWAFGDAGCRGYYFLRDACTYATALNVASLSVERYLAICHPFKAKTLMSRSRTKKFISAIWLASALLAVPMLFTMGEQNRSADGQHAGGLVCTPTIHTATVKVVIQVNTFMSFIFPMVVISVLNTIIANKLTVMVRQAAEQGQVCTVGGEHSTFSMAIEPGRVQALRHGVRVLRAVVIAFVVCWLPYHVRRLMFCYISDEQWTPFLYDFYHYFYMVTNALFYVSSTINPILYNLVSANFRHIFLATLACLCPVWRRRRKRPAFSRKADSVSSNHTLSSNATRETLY

Row | SMILES | IC50
9 | COc1cccc(OC)c1C(=O)CC(CC(=O)c1ccc(Cl)cc1)c1cccc(C(=O)O)c1 (stereo not drawn) [Example 7, 3-[1-[2-(4-Chlorophenyl)-2-oxoethyl]-3-(2,6-dimethoxyphenyl)-3-oxopropyl]-benzoic acid] | 2.2 µM
